The results in this text go back to patent US20040259866A1, “Calcium channel blockers comprising two benzhydril moieties” (priority 1998, published 2004).

Bounds are passed on as bounds.

T1 sequence (Q02294 whole entry): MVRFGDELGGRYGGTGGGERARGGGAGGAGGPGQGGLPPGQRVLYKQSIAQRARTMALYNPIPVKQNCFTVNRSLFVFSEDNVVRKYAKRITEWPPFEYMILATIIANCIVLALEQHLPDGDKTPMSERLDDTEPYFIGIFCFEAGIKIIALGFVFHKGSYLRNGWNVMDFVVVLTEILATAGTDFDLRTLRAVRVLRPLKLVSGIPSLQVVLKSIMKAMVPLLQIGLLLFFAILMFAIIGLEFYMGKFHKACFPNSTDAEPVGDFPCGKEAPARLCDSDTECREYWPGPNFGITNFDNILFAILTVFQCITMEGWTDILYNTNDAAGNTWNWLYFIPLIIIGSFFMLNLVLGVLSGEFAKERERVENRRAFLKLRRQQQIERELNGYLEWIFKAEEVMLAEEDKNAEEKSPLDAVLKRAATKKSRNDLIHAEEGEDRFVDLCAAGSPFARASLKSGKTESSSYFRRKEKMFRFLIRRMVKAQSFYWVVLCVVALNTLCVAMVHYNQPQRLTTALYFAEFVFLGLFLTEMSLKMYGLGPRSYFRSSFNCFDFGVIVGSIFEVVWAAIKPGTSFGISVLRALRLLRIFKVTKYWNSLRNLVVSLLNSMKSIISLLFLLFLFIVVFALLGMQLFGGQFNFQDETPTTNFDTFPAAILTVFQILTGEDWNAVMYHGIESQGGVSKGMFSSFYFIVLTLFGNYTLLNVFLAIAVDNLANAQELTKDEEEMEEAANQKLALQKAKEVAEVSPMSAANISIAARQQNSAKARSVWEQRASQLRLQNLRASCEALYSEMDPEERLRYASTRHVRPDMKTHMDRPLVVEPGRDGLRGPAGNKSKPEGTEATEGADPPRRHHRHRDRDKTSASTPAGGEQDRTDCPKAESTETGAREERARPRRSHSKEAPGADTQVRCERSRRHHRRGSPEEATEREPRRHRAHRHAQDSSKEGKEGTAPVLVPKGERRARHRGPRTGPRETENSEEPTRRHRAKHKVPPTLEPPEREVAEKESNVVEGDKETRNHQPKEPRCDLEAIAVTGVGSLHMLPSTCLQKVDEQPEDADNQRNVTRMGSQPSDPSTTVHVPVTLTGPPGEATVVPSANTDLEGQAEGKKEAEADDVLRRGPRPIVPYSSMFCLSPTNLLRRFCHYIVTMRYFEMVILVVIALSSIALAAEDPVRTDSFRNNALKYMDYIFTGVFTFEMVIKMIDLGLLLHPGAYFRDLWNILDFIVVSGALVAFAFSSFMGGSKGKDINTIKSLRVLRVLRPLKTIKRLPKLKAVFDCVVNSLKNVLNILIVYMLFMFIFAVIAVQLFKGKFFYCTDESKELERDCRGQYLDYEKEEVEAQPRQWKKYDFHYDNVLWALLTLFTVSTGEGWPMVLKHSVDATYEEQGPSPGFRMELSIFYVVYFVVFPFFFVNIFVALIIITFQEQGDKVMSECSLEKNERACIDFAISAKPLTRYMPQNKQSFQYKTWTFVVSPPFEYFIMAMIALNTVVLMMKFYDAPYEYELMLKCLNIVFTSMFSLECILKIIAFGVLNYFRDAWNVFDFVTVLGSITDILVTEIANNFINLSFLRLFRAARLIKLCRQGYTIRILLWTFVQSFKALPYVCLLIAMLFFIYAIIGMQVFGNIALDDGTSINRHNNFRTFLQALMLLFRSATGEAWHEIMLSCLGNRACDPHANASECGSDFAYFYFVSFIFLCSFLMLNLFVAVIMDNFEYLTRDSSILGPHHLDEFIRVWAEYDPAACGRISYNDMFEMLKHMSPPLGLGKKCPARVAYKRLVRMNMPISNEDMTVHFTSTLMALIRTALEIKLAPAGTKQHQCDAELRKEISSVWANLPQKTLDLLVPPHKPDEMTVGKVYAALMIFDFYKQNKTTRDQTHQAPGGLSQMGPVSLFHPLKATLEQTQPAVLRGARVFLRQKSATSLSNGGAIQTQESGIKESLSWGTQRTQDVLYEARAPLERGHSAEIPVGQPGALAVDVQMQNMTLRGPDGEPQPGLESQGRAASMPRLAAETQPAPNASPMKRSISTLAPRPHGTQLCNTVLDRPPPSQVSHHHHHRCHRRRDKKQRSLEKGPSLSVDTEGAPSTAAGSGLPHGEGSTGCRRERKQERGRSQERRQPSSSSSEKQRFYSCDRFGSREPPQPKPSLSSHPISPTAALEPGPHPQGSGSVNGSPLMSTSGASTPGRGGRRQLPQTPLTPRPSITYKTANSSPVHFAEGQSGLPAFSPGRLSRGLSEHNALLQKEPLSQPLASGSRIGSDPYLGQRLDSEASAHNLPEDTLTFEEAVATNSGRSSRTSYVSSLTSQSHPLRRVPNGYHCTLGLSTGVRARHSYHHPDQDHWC

One assay has as its target T1, rat α1B+α2b+β1b channels (N-type channels) (Rattus norvegicus, UniProt Q02294).
T1 construct: expressed in transfected cells
Description: Block of α1B N-type channels, whole cell patch recordings (Example 6). Format: cell-based. As to conditions: 0.067 Hz; HEK 293, 5 mM barium as charge carrier; read-out: Block of α1B N-type Channels IC50, 0.067 Hz. On the procedure:
Antagonist activity was measured using whole cell patch recordings on human embryonic kidney cells either stably or transiently expressing rat α1B+α2b+β1b channels (N-type channels) with 5 mM barium as a charge carrier.
For transient expression, host cells, such as human embryonic kidney cells, HEK 293 (ATCC# CRL 1573) were grown in standard DMEM medium supplemented with 2 mM glutamine and 10% fetal bovine serum. HEK 293 cells were transfected by a standard calcium-phosphate-DNA coprecipitation method using the rat α1B+β1b+α2δ N-type calcium channel subunits in a vertebrate expression vector (for example, see Current Protocols in Molecular Biology).
After an incubation period of from 24 to 72 hrs the culture medium was removed and replaced with external recording solution (see below). Whole cell patch clamp experiments were performed using an Axopatch 200B amplifier (Axon Instruments, Burlingame, Calif.) linked to an IBM compatible personal computer equipped with pCLAMP software. Borosilicate glass patch pipettes (Sutter Instrument Co., Novato, Calif.) were polished (Microforge, Narishige, Japan) to a resistance of about 4 MΩ when filled with cesium methanesulfonate internal solution (composition in MM: 109 CsCH3SO4, 4 MgCl2, 9 EGTA, 9 HEPES, pH 7.2). Cells were bathed in 5 mM Ba^++ (in mM: 5 BaCl2, 1 MgCl2, 10 HEPES, 40 tetraethylammonium chloride, 10 glucose, 87.5 CsCl pH 7.2). […] Drugs were perfused directly into the vicinity of the cells using a microperfusion system.
Normalized dose-response curves were fit (Sigmaplot 4.0, SPSS Inc., Chicago, Ill.) by the Hill equation to determine IC50 values. Steady-state inactivation curves were plotted as the normalized test pulse amplitude following 5 s inactivating prepulses at +10 mV increments. Inactivation curves were fit (Sigmaplot 4.0) with the Boltzman equation, Ipeak (normalized)=1/(1+exp((V-Vh)z/25.6)), where V and Vh are the conditioning and half inactivation potentials, respectively, and z is the slope factor.
Using the procedure set forth above, various compounds of the invention were tested for their ability to block N-type calcium channels.
As a reminder, the IC50 is the concentration needed to halve the response being measured. As for `O=C(CC(c1ccccc1)c1ccccc1)N1CCN(C2c3ccccc3CCc3ccccc32)CC1` [P32 (HC1)], the IC50 is above 1000 nM.
As to `COc1ccc(C(c2ccc3c(c2)OCO3)N2CCN(C(=O)CC(c3ccccc3)c3ccccc3)CC2)cc1` (stereo not drawn) [Compound P26], the IC50 turned out to be 710 nM.
Same read-out and setting: under `O=C(CC(c1ccccc1)c1ccccc1)N1CCN(C(c2ccccc2)c2ccc(F)cc2)CC1` (stereo not drawn) [Compound P24] stands 600 nM; under `N#CC1CN(C(c2ccccc2)c2ccccc2)CCN1C(=O)CC(c1ccccc1)c1ccccc1` (stereo not drawn) [Compound P45], 230 nM.
Still for that read-out and setting: under `O=C(O)C1CN(C(c2ccccc2)c2ccccc2)CCN1C(=O)CC(c1ccccc1)c1ccccc1` (stereo not drawn) [Compound P42] stands 1900 nM; under `O=C(CC(c1ccccc1)c1ccccc1)N1CCN(C(c2ccccc2)c2ccccc2)C(=O)C1` [Compound P34, 1-Benzhydryl-4-(3,3-diphenyl-propionyl)-piperazin-2-one], 737 nM; under `O=C(CC(c1ccccc1)c1ccccc1)N1CCN(C(c2ccccc2)c2ccccc2C(F)(F)F)CC1` (stereo not drawn) [Compound P22], 538 nM.
On to `O=C(CC(c1ccccc1)c1ccccc1)N1CCN(C(c2ccccc2)c2cc(C(F)(F)F)cc(C(F)(F)F)c2)CC1` (stereo not drawn) [P10 (HC1)], for which the IC50 was found to be 300 nM.
Consider `CC(C)(C)c1ccc(C(c2ccccc2)N2CCN(C(=O)CC(c3ccccc3)c3ccccc3)CC2)cc1` (stereo not drawn) [Compound P11], for which the IC50 came out at 370 nM.
For `COc1cc(C(c2ccccc2)N2CCN(C(=O)CC(c3ccccc3)c3ccccc3)CC2)cc(OC)c1OC` (stereo not drawn) [Compound P25], the IC50 is 1090 nM.
Turning to `COc1ccc(C(c2ccccc2)N2CCN(C(=O)CC(c3ccccc3)c3ccccc3)CC2)cc1` (stereo not drawn) [Compound P20], the IC50 worked out at 320 nM.
Turning to `Cc1ccc(C(c2ccccc2)N2CCN(C(=O)CC(c3ccccc3)c3ccccc3)CC2)cc1` (stereo not drawn) [Compound P23], the half-inhibitory concentration (IC50) came to 490 nM.
On to `COc1ccc(C(c2ccc(OC)cc2)N2CCN(C(=O)CC(c3ccccc3)c3ccccc3)CC2)cc1` [Compound P19], for which the IC50 worked out at 360 nM.
The same measure, in the same setting: under `O=C(CC(c1ccccc1)c1ccccc1)N1CCN(C(c2ccccc2)c2ccccc2OC(F)F)CC1` (stereo not drawn) [Compound P12] stands 340 nM; under `CCOC(=O)C1CN(C(c2ccccc2)c2ccccc2)CCN1C(=O)CC(c1ccccc1)c1ccccc1` (stereo not drawn) [Compound P43], 167 nM; under `O=C(CC(c1ccccc1)c1ccccc1)N1CCN(C(c2ccccc2)c2cc(C(F)(F)F)cc(C(F)(F)F)c2)CC1` (stereo not drawn) [Compound P10], 550 nM.

Staying with this assay, now noted: 0.2 Hz; HEK 293, 5 mM barium as charge carrier; read-out: Block of α1B N-type Channels IC50, 0.2 Hz.
For the compound `O=C(CC(c1ccccc1)c1ccccc1)N1CCN(C2c3ccccc3CCc3ccccc32)CC1` [P32 (HC1)], the IC50 turned out to be 830 nM.
Same read-out and setting: under `COc1ccc(C(c2ccc3c(c2)OCO3)N2CCN(C(=O)CC(c3ccccc3)c3ccccc3)CC2)cc1` (stereo not drawn) [Compound P26] stands 533 nM.
`O=C(CC(c1ccccc1)c1ccccc1)N1CCN(C(c2ccccc2)c2ccc(F)cc2)CC1` (stereo not drawn) [Compound P24]: the IC50 was determined as 380 nM.
The same measure, in the same setting: next, `N#CC1CN(C(c2ccccc2)c2ccccc2)CCN1C(=O)CC(c1ccccc1)c1ccccc1` (stereo not drawn) [Compound P45]: 220 nM; `O=C(O)C1CN(C(c2ccccc2)c2ccccc2)CCN1C(=O)CC(c1ccccc1)c1ccccc1` (stereo not drawn) [Compound P42]: 1490 nM; `O=C(CC(c1ccccc1)c1ccccc1)N1CCN(C(c2ccccc2)c2ccccc2)C(=O)C1` [Compound P34, 1-Benzhydryl-4-(3,3-diphenyl-propionyl)-piperazin-2-one]: 680 nM.
With `O=C(CC(c1ccccc1)c1ccccc1)N1CCN(C(c2ccccc2)c2ccccc2C(F)(F)F)CC1` (stereo not drawn) [Compound P22], the IC50 amounted to 301 nM.
Same read-out and setting: under `O=C(CC(c1ccccc1)c1ccccc1)N1CCN(C(c2ccccc2)c2cc(C(F)(F)F)cc(C(F)(F)F)c2)CC1` (stereo not drawn) [P10 (HC1)] stands 190 nM; under `CC(C)(C)c1ccc(C(c2ccccc2)N2CCN(C(=O)CC(c3ccccc3)c3ccccc3)CC2)cc1` (stereo not drawn) [Compound P11], 190 nM; under `COc1cc(C(c2ccccc2)N2CCN(C(=O)CC(c3ccccc3)c3ccccc3)CC2)cc(OC)c1OC` (stereo not drawn) [Compound P25], 513 nM.
On the same count and under the same terms, next, `COc1ccc(C(c2ccccc2)N2CCN(C(=O)CC(c3ccccc3)c3ccccc3)CC2)cc1` (stereo not drawn) [Compound P20]: 250 nM; `Cc1ccc(C(c2ccccc2)N2CCN(C(=O)CC(c3ccccc3)c3ccccc3)CC2)cc1` (stereo not drawn) [Compound P23]: 310 nM.
Still for that read-out and setting: under `COc1ccc(C(c2ccc(OC)cc2)N2CCN(C(=O)CC(c3ccccc3)c3ccccc3)CC2)cc1` [Compound P19] stands 249 nM; under `O=C(CC(c1ccccc1)c1ccccc1)N1CCN(C(c2ccccc2)c2ccccc2OC(F)F)CC1` (stereo not drawn) [Compound P12], 190 nM.
In the case of `CCOC(=O)C1CN(C(c2ccccc2)c2ccccc2)CCN1C(=O)CC(c1ccccc1)c1ccccc1` (stereo not drawn) [Compound P43], the IC50 was 83 nM.
For `O=C(CC(c1ccccc1)c1ccccc1)N1CCN(C(c2ccccc2)c2cc(C(F)(F)F)cc(C(F)(F)F)c2)CC1` (stereo not drawn) [Compound P10], the half-inhibitory concentration (IC50) was determined as 450 nM.

In another assay the target is T2, human α1G subunits (T-type channels) (Homo sapiens, UniProt O43497).
T2 construct: expressed in transfected cells
T2 sequence (O43497 whole entry): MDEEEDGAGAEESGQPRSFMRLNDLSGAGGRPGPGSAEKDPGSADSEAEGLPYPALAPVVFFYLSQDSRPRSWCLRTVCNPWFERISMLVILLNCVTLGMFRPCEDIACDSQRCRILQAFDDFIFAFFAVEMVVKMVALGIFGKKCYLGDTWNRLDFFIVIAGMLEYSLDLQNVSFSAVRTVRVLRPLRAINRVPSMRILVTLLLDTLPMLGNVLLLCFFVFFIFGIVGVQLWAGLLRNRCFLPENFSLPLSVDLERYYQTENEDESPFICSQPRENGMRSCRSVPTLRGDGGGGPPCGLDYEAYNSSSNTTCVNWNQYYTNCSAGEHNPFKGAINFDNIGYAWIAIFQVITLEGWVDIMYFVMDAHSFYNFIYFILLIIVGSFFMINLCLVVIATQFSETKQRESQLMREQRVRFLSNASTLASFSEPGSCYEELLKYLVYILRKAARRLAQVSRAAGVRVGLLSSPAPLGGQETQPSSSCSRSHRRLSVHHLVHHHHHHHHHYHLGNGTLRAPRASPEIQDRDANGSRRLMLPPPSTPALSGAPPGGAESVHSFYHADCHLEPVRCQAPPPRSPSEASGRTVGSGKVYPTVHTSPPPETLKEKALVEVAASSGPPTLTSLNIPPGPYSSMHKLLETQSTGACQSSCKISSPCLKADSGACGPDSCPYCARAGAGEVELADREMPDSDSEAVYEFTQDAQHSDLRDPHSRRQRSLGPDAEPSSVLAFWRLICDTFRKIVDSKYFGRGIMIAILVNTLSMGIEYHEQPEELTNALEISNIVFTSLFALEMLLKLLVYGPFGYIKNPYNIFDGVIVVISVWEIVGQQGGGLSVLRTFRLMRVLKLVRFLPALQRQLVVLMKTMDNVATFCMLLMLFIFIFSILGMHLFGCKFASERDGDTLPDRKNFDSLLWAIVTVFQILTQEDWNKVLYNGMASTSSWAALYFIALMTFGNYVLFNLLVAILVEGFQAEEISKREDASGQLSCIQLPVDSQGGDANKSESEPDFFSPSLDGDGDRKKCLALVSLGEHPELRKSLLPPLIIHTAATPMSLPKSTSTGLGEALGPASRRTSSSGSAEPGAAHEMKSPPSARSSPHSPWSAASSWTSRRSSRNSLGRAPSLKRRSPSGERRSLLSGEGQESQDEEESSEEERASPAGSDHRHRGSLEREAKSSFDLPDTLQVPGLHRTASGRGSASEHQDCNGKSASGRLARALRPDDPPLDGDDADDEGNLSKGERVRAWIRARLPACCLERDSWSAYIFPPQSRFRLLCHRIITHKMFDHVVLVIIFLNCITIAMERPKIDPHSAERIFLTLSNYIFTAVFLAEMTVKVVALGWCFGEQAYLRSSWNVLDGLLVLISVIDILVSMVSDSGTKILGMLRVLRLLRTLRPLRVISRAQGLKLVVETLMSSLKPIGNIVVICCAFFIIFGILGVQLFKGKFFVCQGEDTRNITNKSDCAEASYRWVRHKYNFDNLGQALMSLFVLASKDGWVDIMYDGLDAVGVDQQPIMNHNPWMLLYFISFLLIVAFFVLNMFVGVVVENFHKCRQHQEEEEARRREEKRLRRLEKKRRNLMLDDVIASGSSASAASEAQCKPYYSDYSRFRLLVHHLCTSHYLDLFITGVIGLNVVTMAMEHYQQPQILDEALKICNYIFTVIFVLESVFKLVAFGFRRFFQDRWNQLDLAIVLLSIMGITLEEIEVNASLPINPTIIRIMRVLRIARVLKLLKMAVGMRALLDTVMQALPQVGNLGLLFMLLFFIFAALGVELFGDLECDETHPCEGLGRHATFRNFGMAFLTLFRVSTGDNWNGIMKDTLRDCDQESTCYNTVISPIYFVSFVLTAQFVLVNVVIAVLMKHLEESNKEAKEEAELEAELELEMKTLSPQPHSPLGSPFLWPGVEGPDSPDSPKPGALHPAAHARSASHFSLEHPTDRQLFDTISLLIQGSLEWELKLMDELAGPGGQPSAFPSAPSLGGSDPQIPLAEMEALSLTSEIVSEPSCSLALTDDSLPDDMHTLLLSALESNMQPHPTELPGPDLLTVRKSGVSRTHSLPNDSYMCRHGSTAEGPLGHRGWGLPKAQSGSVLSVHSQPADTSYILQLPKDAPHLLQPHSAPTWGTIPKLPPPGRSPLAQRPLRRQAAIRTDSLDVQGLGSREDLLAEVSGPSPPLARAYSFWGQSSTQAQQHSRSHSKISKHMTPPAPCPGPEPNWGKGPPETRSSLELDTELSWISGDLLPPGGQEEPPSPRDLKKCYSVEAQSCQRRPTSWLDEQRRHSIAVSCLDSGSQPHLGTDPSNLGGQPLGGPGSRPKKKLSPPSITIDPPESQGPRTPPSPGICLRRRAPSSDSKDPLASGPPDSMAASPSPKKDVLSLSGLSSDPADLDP
Description: Block of α1G T-type channels, patch clamp in HEK cell lines (Example 8). The assay is classed as cell-based. To be noted: 80 mV (inactivation protocol); read-out: Block of α1G T-type Channels IC50, 80 mV. The protocol:
Standard patch-clamp techniques were employed to identify blockers of T-type currents. Briefly, previously described HEK cell lines stably expressing human α1G subunits were used for all the recordings (passage #: 4-20, 37° C., 5% CO2). To obtain T-type currents, plastic dishes containing semi-confluent cells were positioned on the stage of a ZEISS AXIOVERT S100 microscope after replacing the culture medium with external solution (see below). Whole-cell patches were obtained using pipettes (borosilicate glass with filament, O.D.: 1.5 mm, I.D.: 0.86 mm, 10 cm length), fabricated on a SUTTER P-97 puller with resistance values of ˜5 MΩ (see below for internal medium).
In the non-inactivating protocol, the holding potential is set at −110 mV and with a pre-pulse at −100 mV for 1 second prior to the test pulse at −40 mV for 50 ms; in the inactivation protocol, the pre-pulse is at approximately −85 mV for 1 second, which inactivates about 15% of the T-type channels, as shown below. [formula]
Test compounds were dissolved in external solution, 0.1-0.01% DMSO. After ˜10 min rest, they were applied by gravity close to the cell using a WPI microfil tubing. The “non-inactivated” pre-pulse was used to examine the resting block of a compound. The “inactivated” protocol was employed to study voltage-dependent block, but the initial data shown below were mainly obtained using the non-inactivated protocol only. IC50 values are shown for various compounds of the invention in Table 5.
Background: The patch-clamp technique gives a direct electrical read-out from membranes.
Consider `N#CC1CN(C(c2ccccc2)c2ccccc2)CCN1C(=O)CC(c1ccccc1)c1ccccc1` (stereo not drawn) [Compound P45], for which the IC50 is 833 nM.
In the case of `O=C(O)C1CN(C(c2ccccc2)c2ccccc2)CCN1C(=O)CC(c1ccccc1)c1ccccc1` (stereo not drawn) [Compound P42], the IC50 amounted to 1840 nM.
On the same count and under the same terms, under `CCOC(=O)C1CN(C(c2ccccc2)c2ccccc2)CCN1C(=O)CC(c1ccccc1)c1ccccc1` (stereo not drawn) [Compound P43] stands 279 nM.

The same assay, now with this note: 100 mV (non-inactivating protocol).
For the compound `O=C(O)C1CN(C(c2ccccc2)c2ccccc2)CCN1C(=O)CC(c1ccccc1)c1ccccc1` (stereo not drawn) [Compound P42], the “Block of α1G T-type Channels IC50, 100 mV” value is “no effect”.

Still in this assay, the particulars now being: 100 mV (non-inactivating protocol); read-out: Block of α1G T-type Channels IC50, 100 mV.
Turning to `N#CC1CN(C(c2ccccc2)c2ccccc2)CCN1C(=O)CC(c1ccccc1)c1ccccc1` (stereo not drawn) [Compound P45], the half-maximal inhibitory concentration (IC50) is 10000 nM.
Still for that read-out and setting: under `COc1ccc(C(c2ccc(OC)cc2)N2CCN(C(=O)CC(c3ccccc3)c3ccccc3)CC2)cc1` [Compound P19] stands 745 nM.
Still for that read-out and setting: under `CCOC(=O)C1CN(C(c2ccccc2)c2ccccc2)CCN1C(=O)CC(c1ccccc1)c1ccccc1` (stereo not drawn) [Compound P43] stands 2380 nM.
